US6613506B1, “Compositions and methods for inhibiting human immunodeficiency virus infection by down-regulating human cellular genes” (Subsidiary No. 3, Inc., priority 2000, dated 2003)

What was measured:
[1] = system: human peripheral blood leukocytes (PBLs); assay: Uninfected human PBL controls with mofarotene alone (CD4, p24, CD3); type: cell-based; settings: for % CD4^+ in population / % p24^− in CD4^− T population: HIV −; for % CD4^+ in population: CD3+ T cells of human PBLs; for % p24^− in CD4^− T population: human PBLs
Description: (§1) Human peripheral blood leukocytes (PBLs) were isolated using Ficoll-Hypaque density gradient separation. Cells were washed twice and resuspended in RPMI+10% FBS+2% human AB serum+penicillin/streptomycin/glutamine+100 Units/mL of IL-2 at a concentration of 0.5×10^6 cells/mL. PBLs were then activated with phytohemagglutinin at 0.5 μg/mL and placed in a humidified incubator at 37° C./5% CO2. After two days of activation, 10^6 cells were infected with HIV-1SF33 at TCID50 of 1000, in the presence of various concentrations of mofarotene: 0 μM, 1 μM, 0.5 μM, 0.1 μM, and 0.05 μM. A separate set of uninfected samples under identical concentrations of mofarotene were also maintained as controls. The samples were analyzed by flow cytometry at day 4 and day 6 post infection. The cells were gated for CD3 expression (for T cells). Then the expression of CD4 and viral p24 and CD4 was examined by bivariate dot plot.

OM10.1 cells = type: cell-based; settings: human, 24 h, 100 nM
HIV-1SF33 = assay: Productive infection of activated human PBLs with HIV-1SF33, flow cytometry of CD3+ T cells; type: cell-based; settings: for % CD4^+ in population / % p24+ cells among CD4+ T cells: HIV +, day 6; for % CD4^+ in population: CD3+ T cells of human PBLs; for % p24+ cells among CD4+ T cells: human PBLs
Description: as §1
In order to test the ability of a NADH dehydrogenase inhibitor to prevent productive infection of T cells by HIV, human PBLs were isolated and infected with HIVSF33 in the presence of various concentrations of mofarotene.

[2] = system: latent HIV provirus in OM10.1 cells; assay: Induction of latent HIV provirus by TNF-α in OM10.1 cells (CD4 retention, p24); type: cell-based, HIV-1
Description: In order to determine p24 expression in HIV-infected cells, the cells were first washed twice with Assay Buffer. About 10^6 cells were suspended in 100 μL Assay Buffer, mixed with 2 mL of Ortho PermeaFix Solution (available from Ortho Diagnostics), and incubated for 40 min. at room temperature. After centrifugation at 1200 rpm for 4 min. at 4EC, the cells were resuspended in 2 mL Wash Buffer (500 mL PBS, 25 mL fetal bovine serum, 1.5% bovine serum albumin and 0.0055% EDTA) for 10 min. at room temperature. After centrifugation, the cells were resuspended in 50 ΦL Wash Buffer and mixed with 1:500 dilution of an IgG2a antibody for 20 min. at 4EC, followed by incubation with 5-10 ΦL of anti-p24 antibody (KC57-FITC, available from Coulter) for 30 min. at 4EC. The cells were then washed twice with Wash Buffer and analyzed by flow cytometry.
One strategy selected for GSEs which suppressed productive infection of cells by HIV. The second strategy selected for GSEs which suppressed induction of the latent provirus in OM10.1 cells. When OM10.1 cells were treated with TNF-α and stained with an antibody specific for the cell surface molecule CD4, a rapid loss of CD4 expression was observed (FIG. 1). In contrast, the vast majority of the uninduced OM10.1 cells retained CD4 expression. It is believed that activation of the latent virus in OM10.1 cells by TNF-α leads to the production of viral protein gp120, which binds to cytoplasmic CD4, thereby preventing its translocation to the cell surface. A diminution of CD4^+ OM10.1 cells also correlates with an increased production of viral protein p24 in the cells following TNF-α induction.
OM10.1 cells were cultured in RPMI 1640 glucose-free media prior to and during incubation with NADH dehydrogenase inhibitors and TNF-á induction. The inhibitors were added to the cells followed by TNF-á induction 1-2 hours later. The expression of CD4 by the cells was assessed by anti-CD4 antibody staining and flow cytometry after 24 hour incubation at 37° C.

For `C/C(=C\c1ccc(OCCN2CCOCC2)cc1)c1ccc2c(c1)C(C)(C)CCC2(C)C` [mofarotene, Mofarotene], the “% CD4^+ in population” value ([1]; mofarotene 0.05 μM, day 6) was 33%, the “% p24^− in CD4^− T population” value ([1]; mofarotene 0.05 μM, day 6) was 0% and the “% CD4^+ in population” value ([1]; mofarotene 0.1 μM, day 6) was 34%. The “% p24^− in CD4^− T population” value ([1]; mofarotene 0.1 μM, day 6) was 0%, the “% CD4^+ in population” value ([1]; mofarotene 0.5 μM, day 6) was 34% and the “% p24^− in CD4^− T population” value ([1]; mofarotene 0.5 μM, day 6) was 0%. For the same compound, the “% CD4^+ in population” value ([1]; mofarotene 1.0 μM, day 6) was 36%, the “% p24^− in CD4^− T population” value ([1]; mofarotene 1.0 μM, day 6) was 0% and the “expression level of CD3 on the cell surface” value ([1]; day 4) was “nor did it alter the expression level of CD3 on the cell surface”. The “percentage of CD4^+ T cells, mofarotene alone” value ([1]; day 4) was “did not significantly alter the percentage of CD4^+ T cells”, the “expression level of CD3 on the cell surface” value ([1]; day 6) was “did not alter the expression level of CD3 on the cell surface” and the “increase of the percentage of CD4^+ T cells in uninfected samples by mofarotene alone” value ([1]; day 6, uninfected samples) was “up to 4%”. The “cells that remained viable” value (OM10.1 cells) was “greater than 80%”, the “% CD4^+ in population” value (HIV-1SF33; mofarotene 0.05 μM) was 18% and the “% p24+ cells among CD4+ T cells” value (HIV-1SF33; mofarotene 0.05 μM) was 20.5%. For the same compound, the “% CD4^+ in population” value (HIV-1SF33; mofarotene 0.1 μM) was 28%, the “% p24+ cells among CD4+ T cells” value (HIV-1SF33; mofarotene 0.1 μM) was 11.4% and the “% CD4^+ in population” value (HIV-1SF33; mofarotene 0.5 μM) was 24%. The “% p24+ cells among CD4+ T cells” value (HIV-1SF33; mofarotene 0.5 μM) was 12.5%, the “% CD4^+ in population” value (HIV-1SF33; mofarotene 1.0 μM) was 25% and the “% p24+ cells among CD4+ T cells” value (HIV-1SF33; mofarotene 1.0 μM) was 10%. The “% p24+ cells among CD4+ T cells” value (HIV-1SF33; mofarotene 1.0 μM, listed as Mofarotene) was 10%, the “difference between HIV-infected PBLs with or without mofarotene” value (HIV-1SF33; day 4 post-infection) was “little detectable difference” and the “depletion of CD4^+ T cells by HIV infection” value (HIV-1SF33; day 6, 1 μM mofarotene) was “inhibited the depletion of CD4^+ T cells by HIV infection”. The “level of protection (percentage of p24+ CD4+ T cells and of CD4+ cells in CD3+ T cells) versus concentration” value (HIV-1SF33; day 6, 1 to 0.05 μM) was “diminished with decreased concentrations of mofarotene”, the “cells that retained CD4 expression” value ([2]; 100 nM of mofarotene, TNF-α-induced OM10.1 cells) was 80% and the “inhibition of induction of latent HIV provirus (retention of CD4 expression)” value ([2]; TNF-α-induced OM10.1 cells, 24 hour incubation, FIG. 5 / FIG. 6) was “inhibited HIV-1 induction at even lower concentrations”. The “intracellular p24 levels” value ([2]; treated cells compared with untreated controls) was “suppressed intracellular p24 levels”.
